# In ChEMBL document CHEMBL5244234, “Janus kinases (JAKs): The efficient therapeutic targets for autoimmune diseases and myeloproliferative disorders” (Eur J Med Chem, 2020):
# Columns and labels:
# U-266 = assay: Antiproliferative activity against human U266B1 cells assessed as inhibition of cell proliferation; assay type: functional, cell-based
# [1] = target: T1, Tyrosine-protein kinase JAK1 (Homo sapiens, UniProt P23458); assay: Competitive inhibition of JAK1 (unknown origin) in the presence of ATP
# T1 sequence (P23458 whole entry): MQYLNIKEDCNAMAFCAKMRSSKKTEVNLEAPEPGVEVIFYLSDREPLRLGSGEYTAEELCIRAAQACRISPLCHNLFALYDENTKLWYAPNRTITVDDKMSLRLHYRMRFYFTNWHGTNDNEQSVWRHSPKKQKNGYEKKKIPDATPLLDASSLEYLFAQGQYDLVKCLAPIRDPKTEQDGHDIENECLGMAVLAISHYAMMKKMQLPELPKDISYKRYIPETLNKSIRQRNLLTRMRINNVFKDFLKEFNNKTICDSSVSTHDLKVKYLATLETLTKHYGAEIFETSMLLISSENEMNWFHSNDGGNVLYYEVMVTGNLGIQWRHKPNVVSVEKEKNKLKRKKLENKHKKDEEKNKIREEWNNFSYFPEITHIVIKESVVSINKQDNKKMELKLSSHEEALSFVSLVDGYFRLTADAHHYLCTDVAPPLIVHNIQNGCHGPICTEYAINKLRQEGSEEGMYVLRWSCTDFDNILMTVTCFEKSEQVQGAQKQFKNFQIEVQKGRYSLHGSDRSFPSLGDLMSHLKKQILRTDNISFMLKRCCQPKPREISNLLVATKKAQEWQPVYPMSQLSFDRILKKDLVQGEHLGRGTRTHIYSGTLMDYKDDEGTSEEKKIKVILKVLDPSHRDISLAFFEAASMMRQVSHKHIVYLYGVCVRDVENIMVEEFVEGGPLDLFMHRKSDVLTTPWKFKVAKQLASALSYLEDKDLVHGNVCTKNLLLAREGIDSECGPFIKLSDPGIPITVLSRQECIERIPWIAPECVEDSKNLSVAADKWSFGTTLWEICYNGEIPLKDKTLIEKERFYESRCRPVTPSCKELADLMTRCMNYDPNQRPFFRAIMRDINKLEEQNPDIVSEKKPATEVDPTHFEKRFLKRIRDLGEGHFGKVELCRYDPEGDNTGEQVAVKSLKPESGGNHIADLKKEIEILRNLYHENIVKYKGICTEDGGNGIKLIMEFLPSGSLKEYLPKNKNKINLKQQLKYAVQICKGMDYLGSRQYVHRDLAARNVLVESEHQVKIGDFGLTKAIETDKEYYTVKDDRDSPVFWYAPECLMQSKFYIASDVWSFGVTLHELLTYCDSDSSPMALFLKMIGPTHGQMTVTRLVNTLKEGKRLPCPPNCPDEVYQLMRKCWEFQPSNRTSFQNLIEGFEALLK
# [2] = target: T2, Tyrosine-protein kinase JAK2 (Homo sapiens, UniProt O60674); assay: Competitive inhibition of JAK2 (unknown origin) in the presence of ATP
# T2 sequence (O60674 whole entry): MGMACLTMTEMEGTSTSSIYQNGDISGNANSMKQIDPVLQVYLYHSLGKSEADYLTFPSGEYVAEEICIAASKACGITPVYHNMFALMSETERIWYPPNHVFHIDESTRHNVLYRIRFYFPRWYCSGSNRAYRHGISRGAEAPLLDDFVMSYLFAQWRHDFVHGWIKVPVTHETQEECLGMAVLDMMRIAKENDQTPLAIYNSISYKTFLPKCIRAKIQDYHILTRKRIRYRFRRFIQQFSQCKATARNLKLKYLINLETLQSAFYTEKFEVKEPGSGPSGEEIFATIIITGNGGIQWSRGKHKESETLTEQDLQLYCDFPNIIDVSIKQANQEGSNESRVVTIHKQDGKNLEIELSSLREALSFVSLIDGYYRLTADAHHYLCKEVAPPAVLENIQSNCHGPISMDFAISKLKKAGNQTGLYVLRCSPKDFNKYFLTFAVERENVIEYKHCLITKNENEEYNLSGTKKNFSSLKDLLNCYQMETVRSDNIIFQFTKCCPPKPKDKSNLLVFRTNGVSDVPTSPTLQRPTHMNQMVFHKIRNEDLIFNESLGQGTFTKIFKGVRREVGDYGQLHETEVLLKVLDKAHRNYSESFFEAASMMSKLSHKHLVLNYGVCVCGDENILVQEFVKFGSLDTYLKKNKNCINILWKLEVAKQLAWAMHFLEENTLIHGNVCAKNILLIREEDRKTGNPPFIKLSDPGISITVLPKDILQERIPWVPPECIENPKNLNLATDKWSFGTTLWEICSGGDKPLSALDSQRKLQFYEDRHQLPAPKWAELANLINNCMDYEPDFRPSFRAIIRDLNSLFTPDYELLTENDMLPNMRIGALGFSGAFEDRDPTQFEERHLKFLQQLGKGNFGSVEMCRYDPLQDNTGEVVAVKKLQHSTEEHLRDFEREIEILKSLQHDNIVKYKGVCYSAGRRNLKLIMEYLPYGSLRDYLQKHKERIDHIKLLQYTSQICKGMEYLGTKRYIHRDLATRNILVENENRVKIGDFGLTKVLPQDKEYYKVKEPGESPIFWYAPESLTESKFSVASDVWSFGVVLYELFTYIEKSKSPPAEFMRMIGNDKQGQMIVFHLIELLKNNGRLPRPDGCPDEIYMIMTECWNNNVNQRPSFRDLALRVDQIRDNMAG
# [3] = target: T2, Tyrosine-protein kinase JAK2; assay: Inhibition of JAK2 (unknown origin)
# [4] = target: T1, Tyrosine-protein kinase JAK1; assay: Inhibition of JAK1 (unknown origin)
# Homo sapiens [5] = species: Homo sapiens; assay: Selectivity index, ratio of IC50 for inhibition of JAK3 (unknown origin) to IC50 for inhibition of JAK1 (unknown origin)
# Homo sapiens [6] = species: Homo sapiens; assay: Selectivity index, ratio of IC50 for inhibition of JAK2 (unknown origin) to IC50 for inhibition of JAK1 (unknown origin)
# [7] = target: T3, Tyrosine-protein kinase JAK3 (Homo sapiens, UniProt P52333); assay: Inhibition of JAK3 (unknown origin)
# T3 sequence (P52333 whole entry): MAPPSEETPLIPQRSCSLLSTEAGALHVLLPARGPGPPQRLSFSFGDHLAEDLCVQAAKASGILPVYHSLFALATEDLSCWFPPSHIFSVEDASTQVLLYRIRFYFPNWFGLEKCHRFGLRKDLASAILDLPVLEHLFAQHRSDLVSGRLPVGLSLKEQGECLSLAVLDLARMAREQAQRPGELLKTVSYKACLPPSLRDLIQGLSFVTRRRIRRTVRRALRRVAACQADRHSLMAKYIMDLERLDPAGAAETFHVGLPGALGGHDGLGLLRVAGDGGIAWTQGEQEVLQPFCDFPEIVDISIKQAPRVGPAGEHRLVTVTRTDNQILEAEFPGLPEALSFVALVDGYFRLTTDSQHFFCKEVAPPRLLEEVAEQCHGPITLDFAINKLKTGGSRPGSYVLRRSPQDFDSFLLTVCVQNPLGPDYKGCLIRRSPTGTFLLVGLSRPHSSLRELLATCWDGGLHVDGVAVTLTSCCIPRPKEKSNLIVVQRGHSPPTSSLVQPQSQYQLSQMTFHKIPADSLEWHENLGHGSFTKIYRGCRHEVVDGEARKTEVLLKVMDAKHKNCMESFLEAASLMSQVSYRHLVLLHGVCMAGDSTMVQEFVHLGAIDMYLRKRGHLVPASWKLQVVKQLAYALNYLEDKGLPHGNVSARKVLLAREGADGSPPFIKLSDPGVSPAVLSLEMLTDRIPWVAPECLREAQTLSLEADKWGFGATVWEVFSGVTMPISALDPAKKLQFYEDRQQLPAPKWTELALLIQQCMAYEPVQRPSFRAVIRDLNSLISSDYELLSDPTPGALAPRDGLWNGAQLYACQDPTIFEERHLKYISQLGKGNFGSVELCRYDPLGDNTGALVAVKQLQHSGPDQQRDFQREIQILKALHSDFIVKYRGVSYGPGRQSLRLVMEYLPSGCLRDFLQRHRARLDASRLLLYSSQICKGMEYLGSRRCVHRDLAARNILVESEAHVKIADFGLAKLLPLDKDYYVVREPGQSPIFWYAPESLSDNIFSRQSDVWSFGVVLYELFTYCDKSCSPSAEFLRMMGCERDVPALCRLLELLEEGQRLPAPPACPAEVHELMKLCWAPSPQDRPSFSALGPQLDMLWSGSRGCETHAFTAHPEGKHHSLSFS
# [8] = target: T4, Non-receptor tyrosine-protein kinase TYK2 (Homo sapiens, UniProt P29597); assay: Inhibition of TYK2 (unknown origin)
# T4 sequence (P29597 whole entry): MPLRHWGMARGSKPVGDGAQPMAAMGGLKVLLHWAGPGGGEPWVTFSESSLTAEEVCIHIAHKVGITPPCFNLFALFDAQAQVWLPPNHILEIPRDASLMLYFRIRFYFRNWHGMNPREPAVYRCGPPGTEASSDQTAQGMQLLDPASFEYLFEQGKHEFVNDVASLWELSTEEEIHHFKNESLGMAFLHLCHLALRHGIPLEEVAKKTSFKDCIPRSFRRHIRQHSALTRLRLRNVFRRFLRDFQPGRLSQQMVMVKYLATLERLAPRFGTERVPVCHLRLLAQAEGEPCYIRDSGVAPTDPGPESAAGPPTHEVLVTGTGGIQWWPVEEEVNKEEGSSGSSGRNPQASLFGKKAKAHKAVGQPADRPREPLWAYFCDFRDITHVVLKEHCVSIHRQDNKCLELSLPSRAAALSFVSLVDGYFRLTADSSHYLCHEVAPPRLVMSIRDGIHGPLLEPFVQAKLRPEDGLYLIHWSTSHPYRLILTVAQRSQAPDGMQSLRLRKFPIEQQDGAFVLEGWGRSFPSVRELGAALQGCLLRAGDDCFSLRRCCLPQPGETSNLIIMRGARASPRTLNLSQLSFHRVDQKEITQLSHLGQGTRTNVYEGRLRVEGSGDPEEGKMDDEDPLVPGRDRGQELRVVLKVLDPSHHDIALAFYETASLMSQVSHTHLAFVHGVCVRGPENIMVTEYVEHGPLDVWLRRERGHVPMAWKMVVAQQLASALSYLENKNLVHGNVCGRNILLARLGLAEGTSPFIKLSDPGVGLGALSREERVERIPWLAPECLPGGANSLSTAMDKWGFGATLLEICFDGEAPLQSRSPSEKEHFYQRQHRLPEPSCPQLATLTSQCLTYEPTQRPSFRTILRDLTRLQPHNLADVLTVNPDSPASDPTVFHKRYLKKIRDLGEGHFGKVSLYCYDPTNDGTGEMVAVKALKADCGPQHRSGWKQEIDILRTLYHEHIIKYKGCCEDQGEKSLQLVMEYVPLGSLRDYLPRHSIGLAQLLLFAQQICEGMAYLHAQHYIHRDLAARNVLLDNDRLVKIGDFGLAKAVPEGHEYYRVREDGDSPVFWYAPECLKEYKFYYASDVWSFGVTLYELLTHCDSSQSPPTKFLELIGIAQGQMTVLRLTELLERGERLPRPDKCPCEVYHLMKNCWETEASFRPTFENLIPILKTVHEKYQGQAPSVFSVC
# Homo sapiens [9] = species: Homo sapiens; assay: Selectivity index, ratio of IC50 for inhibition of TYK2 (unknown origin) to IC50 for inhibition of JAK1 (unknown origin)
# [10] = Inhibition of IL-2 stimulated human T cell proliferation; assay type: toxicity, cell-based
# B cell = assay: Inhibition of cell proliferation in CD40L/IL-4-induced human B cells; assay type: toxicity, cell-based
# [11] = Inhibition of T cell proliferation in Balb/c mouse spleenocytes by MLR assay; assay type: toxicity, cell-based; details: Splenocyte
# [12] = Inhibition of STAT5 phosphorylation in IL-2 stimulated mouse HT-2 cells; assay type: cell-based; details: HT2
# [13] = target: T1, Tyrosine-protein kinase JAK1; assay: Inhibition of JAK1 (unknown origin) assessed as inhibition constant
# [14] = Inhibition of T cell proliferation in CBA mouse spleenocytes by MLR assay; assay type: toxicity, cell-based; details: Splenocyte
# [15] = target: Signal transducer and activator of transcription 3 (Homo sapiens, UniProt P40763); assay: Inhibition of IL6-stimulated STAT3 signalling in human CD4+ T cells; assay type: cell-based, T cell
# Rattus norvegicus [16] = assay: Antiarthritic activity in CFA-induced Lewis rat assessed as increase in hind paw volume at 1 mg/kg administered for 2 weeks by plethysmometer relative to control; assay type: functional
# Rattus norvegicus [17] = assay: Antiarthritic activity in CFA-induced Lewis rat assessed as increase in hind paw volume at 3 to 10 mg/kg administered for 2 weeks by plethysmometer relative to control; assay type: functional; details: dose 3-10 mg/kg
# [18] = target: T2, Tyrosine-protein kinase JAK2; assay: Inhibition of JAK2 (unknown origin) by Lanthascreen kinase assay
# [19] = target: T3, Tyrosine-protein kinase JAK3; assay: Inhibition of JAK3 (unknown origin) by Lanthascreen kinase assay
# [20] = target: Proto-oncogene tyrosine-protein kinase receptor Ret (Homo sapiens, UniProt P07949); assay: Inhibition of RET (unknown origin)
# Sequence of Proto-oncogene tyrosine-protein kinase receptor Ret (P07949 whole entry, the tested form may be a part): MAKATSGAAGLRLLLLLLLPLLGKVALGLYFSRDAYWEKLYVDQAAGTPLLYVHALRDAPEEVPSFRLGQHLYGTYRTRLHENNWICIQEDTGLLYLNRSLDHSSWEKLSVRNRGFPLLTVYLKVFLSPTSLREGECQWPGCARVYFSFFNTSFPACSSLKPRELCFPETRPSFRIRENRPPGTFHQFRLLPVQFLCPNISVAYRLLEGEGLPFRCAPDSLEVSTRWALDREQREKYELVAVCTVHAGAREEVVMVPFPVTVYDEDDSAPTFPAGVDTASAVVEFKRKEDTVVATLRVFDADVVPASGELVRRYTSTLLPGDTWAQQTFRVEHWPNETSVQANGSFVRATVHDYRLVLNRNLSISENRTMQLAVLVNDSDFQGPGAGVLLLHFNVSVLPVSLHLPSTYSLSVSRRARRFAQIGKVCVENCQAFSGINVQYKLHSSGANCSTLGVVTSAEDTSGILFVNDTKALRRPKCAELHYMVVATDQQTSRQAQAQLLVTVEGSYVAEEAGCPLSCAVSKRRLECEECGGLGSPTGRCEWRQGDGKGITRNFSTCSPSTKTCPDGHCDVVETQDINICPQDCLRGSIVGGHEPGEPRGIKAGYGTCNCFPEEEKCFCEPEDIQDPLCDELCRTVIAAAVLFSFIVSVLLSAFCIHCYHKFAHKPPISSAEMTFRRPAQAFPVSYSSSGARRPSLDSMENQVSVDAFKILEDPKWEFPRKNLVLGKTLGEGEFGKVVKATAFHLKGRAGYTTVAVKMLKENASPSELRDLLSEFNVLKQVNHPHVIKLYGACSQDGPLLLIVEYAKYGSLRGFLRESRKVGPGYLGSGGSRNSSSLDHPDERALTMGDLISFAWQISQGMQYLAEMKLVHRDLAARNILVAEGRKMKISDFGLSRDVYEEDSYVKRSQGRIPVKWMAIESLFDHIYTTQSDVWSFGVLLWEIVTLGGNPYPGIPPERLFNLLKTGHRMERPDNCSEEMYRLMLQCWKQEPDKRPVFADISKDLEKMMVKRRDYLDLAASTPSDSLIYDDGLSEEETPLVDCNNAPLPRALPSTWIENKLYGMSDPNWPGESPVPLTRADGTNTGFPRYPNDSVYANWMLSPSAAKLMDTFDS
# [21] = target: T3, Tyrosine-protein kinase JAK3; assay: Inhibition of recombinant human JAK3 (781 to 1124 residues)
# [22] = target: T4, Non-receptor tyrosine-protein kinase TYK2; assay: Inhibition of recombinant human TYK2 (870 to 1187 residues)
# HCT-116 [23] = assay: Antitumor activity against human HCT-116 cells xenografted in Balb/c mouse assessed as tumor growth inhibition at 15 mg/kg relative to control; assay type: functional; details: read-out: TGI
# HCT-116 [24] = assay: Antitumor activity against human HCT-116 cells xenografted in Balb/c mouse assessed as tumor growth inhibition at 20 mg/kg relative to control; assay type: functional; details: read-out: TGI
# HEL = assay: cells; details: Homo sapiens, 72 h
# [25] = Antiproliferative activity against mouse BaF3 cells assessed as inhibition of cell proliferation incubated for 72 hrs by XTT assay; assay type: toxicity, cell-based
# BaF3 [26] = assay: Antiproliferative activity against mouse BaF3 cells harboring JAK2 V617F mutant assessed as inhibition of cell proliferation incubated for 72 hrs by XTT assay; assay type: toxicity, cell-based; details: BaF3, 72 h
# Homo sapiens [27] = species: Homo sapiens; assay: Selectivity index, ratio of IC50 for inhibition of human JAK3 kinase domain to IC50 for inhibition of human JAK2 kinase domain incubated for 1 hrs in the presence of ATP by spectrophotometric analysis
# BaF3 [28] = assay: Antiproliferative activity against mouse BaF3 cells harboring JAK2 V617F mutation incubated for 72 hrs by MTT assay; assay type: functional, cell-based; details: BaF3, 72 h
# [29] = target: T1, Tyrosine-protein kinase JAK1; assay: Inhibition of human JAK1 kinase domain incubated for 1 hrs in the presence of ATP by spectrophotometric analysis
# [30] = target: T3, Tyrosine-protein kinase JAK3; assay: Inhibition of human JAK3 kinase domain incubated for 1 hrs in the presence of ATP by spectrophotometric analysis
# [31] = target: T2, Tyrosine-protein kinase JAK2; assay: Inhibition of human JAK2 kinase domain incubated for 1 hrs in the presence of ATP by spectrophotometric analysis
# [32] = target: T4, Non-receptor tyrosine-protein kinase TYK2; assay: Inhibition of human TYK2 kinase domain incubated for 1 hrs in the presence of ATP by spectrophotometric analysis
# Homo sapiens [33] = species: Homo sapiens; assay: Selectivity index, ratio of IC50 for inhibition of human TYK2 kinase domain to IC50 for inhibition of human JAK2 kinase domain incubated for 1 hrs in the presence of ATP by spectrophotometric analysis
# Homo sapiens [34] = species: Homo sapiens; assay: Selectivity index, ratio of IC50 for inhibition of human JAK1 kinase domain to IC50 for inhibition of human JAK2 kinase domain incubated for 1 hrs in the presence of ATP by spectrophotometric analysis
# BaF3 [35] = assay: Antiproliferative activity against mouse BaF3 cells expressing TEL fused JAK2 incubated for 72 hrs by MTT assay; assay type: functional, cell-based; details: BaF3, 72 h
# [36] = target: Tyrosine-protein kinase JAK2 (Mus musculus, UniProt Q62120); assay: Inhibition of IL-3 stimulated wild type JAK2-mediated signalling in mouse BaF3 cells preincubated with compound for 5 hrs followed by IL-3 stimulation and measured after 20 mins by Alphascreen SureFire assay; assay type: cell-based
# [37] = Inhibition of STAT5 phosphorylation in mouse BaF3 cells expressing JAK2 V617F mutant incubated for 5 hrs by Alphascreen SureFire assay; assay type: cell-based; details: BaF3, 5 h
# BaF3 [38] = assay: Inhibition of cell proliferation in mouse BaF3 cells expressing JAK2 V617F mutant; assay type: toxicity, cell-based
# BaF3 [39] = assay: Inhibition of cell proliferation in IL-3 stimulated mouse BaF3 cells expressing wild-type JAK2; assay type: toxicity, cell-based
smiles,measurement,setting,value
CC(C)(C)c1nc2c3ccc(F)cc3c3c(=O)[nH]ccc3c2[nH]1,IC50,U-266,0.25 µM
Cc1cc(Nc2nc(N[C@@H](C)c3ncc(F)cn3)ncc2Cl)n[nH]1 [AZD-1480],IC50,[1],0.0013 µM
same,IC50,[2],0.0004 µM
N#CCC1(n2cc(-c3ncnc4[nH]ccc34)cn2)CN(C2CCN(C(=O)c3ccnc(C(F)(F)F)c3F)CC2)C1 [ITACITINIB],IC50,[3],0.063 µM
same,IC50,[4],0.002 µM
same,Ratio IC50,Homo sapiens [5],> 100
same,Ratio IC50,Homo sapiens [6],> 20
same,IC50,[7],2 µM
same,IC50,[8],0.795 µM
same,Ratio IC50,Homo sapiens [9],> 100
CC[C@@](C)(Nc1ccnc(-c2c[nH]c3ncccc23)n1)C(=O)NCC(F)(F)F [DECERNOTINIB],IC50,[10],0.05 µM
same,IC50,B cell,0.05 µM
same,IC50,[11],0.05 µM
same,IC50,[12],0.05 µM
same,Ki,[13],0.011 µM
same,IC50,[14],0.05 µM
CN(C)C(=O)/C(C#N)=C/c1ccc(-c2nc3cnc4[nH]ccc4c3n2C2CCCCC2)o1,IC50,[15],1 µM
CCS(=O)(=O)N1CC(CC#N)(n2cc(-c3ncnc4[nH]ccc34)cn2)C1 [BARICITINIB],Activity,Rattus norvegicus [16],50%
same,Activity,Rattus norvegicus [17],>95%
Cc1cc(Nc2ccc3nc(C)n([C@@H]4CCc5ccc(F)cc54)c3c2)[nH]n1,IC50,[18],0.002 µM
same,IC50,[19],0.008 µM
Cc1cnc(Nc2ccc(N3CCN(C)CC3)cc2)nc1Nc1cccc(S(=O)(=O)NC(C)(C)C)c1,IC50,[20],0.017 µM
CNS(=O)(=O)C[C@H]1CC[C@H](N(C)c2ncnc3[nH]ccc23)CC1 [OCLACITINIB],IC50,[21],0.099 µM
same,IC50,[22],0.084 µM
O=C(Nc1c[nH]nc1-c1nc2ccc(CN3CCOCC3)cc2[nH]1)NC1CC1 [AT-9283],inhibition in vivo at 15 mg/kg,HCT-116 [23],67%
same,inhibition in vivo at 20 mg/kg,HCT-116 [24],76%
Cc1cnc(Nc2ccc(OCCN3CCCC3)cc2)nc1Nc1cccc(S(=O)(=O)NC(C)(C)C)c1 [FEDRATINIB],IC50,HEL,0.305 µM
same,IC50 at 72 h,[25],0.42 µM
same,IC50,BaF3 [26],0.27 µM
C[C@H](Nc1cc(-c2cnn(C)c2)cc(Nc2cnccn2)n1)c1ccc(F)cc1 [NS-018],Ratio IC50,Homo sapiens [27],54
same,IC50,BaF3 [28],0.011 µM
same,IC50,[29],0.033 µM
same,IC50,[30],0.039 µM
same,IC50,[31],0.00072 µM
same,IC50,[32],0.022 µM
same,Ratio IC50,Homo sapiens [33],31
same,Ratio IC50,Homo sapiens [34],46
same,IC50,BaF3 [35],0.011 µM
CC1(C)CN(C(=O)c2ccc(-c3cccc4nc(NC(=O)C5CC5)nn34)cc2)C1 [SOLCITINIB],IC50,[3],0.108 µM
same,IC50,[4],0.0098 µM
same,Ratio IC50,Homo sapiens [5],55
same,Ratio IC50,Homo sapiens [6],11
same,IC50,[7],0.539 µM
same,IC50,[8],0.225 µM
same,Ratio IC50,Homo sapiens [9],23
Cc1cc(Nc2cc(CN3CCOCC3)c3nc(C)c(Cc4ccc(Cl)cc4F)n3n2)n[nH]1 [GANDOTINIB],IC50,[36],1.18 µM
same,IC50,[37],0.02 µM
same,IC50,BaF3 [38],0.055 µM
same,IC50,BaF3 [39],1.31 µM
same,IC50,[19],0.048 µM
same,IC50,[8],0.044 µM
